From patent publication US20240309322A1, “[…], METHOD FOR MAN[…], AND MA[…] AND MICROGLIA” (KEIO UNIVERSITY, priority 2021, published 2024)

Test system: SPI1 gene
Experiment: qRT-PCR of SPI1 gene expression on adding doxycycline (PU protocol)
Type: cell-based, human
Protocol: The expression level at the transcription level can be evaluated through, for example, quantitative reverse transcription PCR (qRT-PCR) using one obtained by reverse-transcribing mRNA prepared from target cells as a template.
In the PU protocol, doxycycline (1 μg/mL) was added to the culture liquid from day 6 to day 18 from the start of culture.
By adding doxycycline, the expression level of the SPI1 gene evaluated through qRT-PCR increased by at least about 50 times compared to a case without doxycycline.

Structure (SMILES): C[C@H]1c2cccc(O)c2C(=O)C2=C(O)[C@]3(O)C(=O)C(C(N)=O)=C(O)[C@@H](N(C)C)[C@@H]3[C@@H](O)[C@@H]21 [doxycycline]
- expression level of the SPI1 gene evaluated through qRT-PCR, increase compared to a case without doxycycline (doxycycline 1 μg/mL in culture liquid from day 6 to day 18, SPI1-introduced hiPSC-derived cells): at least 50 times
- expression level of the SPI1 gene with a primer set that selectively amplifies endogenous SPI1 gene (regardless of the presence or absence of doxycycline, endogenous SPI1 only): 1-2 times
